The source of these data is US20250264397A1, “Light-field Flow Cytometer” (Georgia Tech Research Corporation, priority 2024, published 2025).

This experiment has as its system Jurkat cells. Briefly: Jurkat cell apoptosis induced by staurosporine (STS) treatment, imaged by light-field flow cytometry (LFC). Format: cell-based, human. The following applies: 1-μM STS.

Description: Jurkat cell apoptosis induced by staurosporine (STS) treatment and staining. Jurkat T cells (e.g., #88042803, Sigma-Aldrich) were cultured in RPMI with 10% FBS and 1% Pen-Strep as a modified RPMI medium at 37° C. and in a 5% CO2 environment. On the imaging day, 1 μM of STS was added to 4 cell dishes, incubating for 30, 60, 120, and 300 min, respectively, at 37° C. The following procedures for preparing cells in the 4 dishes were the same. After the treatment, cells were centrifuged (e.g., 500× g, 6 min, 37° C.) and resuspended into the modified RPMI medium. After two rounds of centrifuge-washing, cells were resuspended into 6 mL of modified RPMI medium. For fluorescence labeling, 250 nM of SYTO16 green stains were added to the culture dish, and the cells were incubated for 1 hour. At the halfway of incubation (30 min), 150 nM of Mito Tracker Deep Red FM stains were added to the culture dish. After another 30 min, cells were centrifuged (e.g., 500× g, 6 min, 37° C.) and resuspended into 6 mL of the 4% PFA fixation buffer. Cells were fixed at room temperature for 12 min. After fixation, cells were centrifuged (800× g, 6 min, room temperature) and resuspended into PBS twice. Finally, cells were stored in PBS for imaging flow cytometry.
Imaging morphological changes in staurosporine-treated Jurkat cells. […]

As for `CN[C@@H]1C[C@H]2O[C@@](C)([C@@H]1OC)n1c3ccccc3c3c4c(c5c6ccccc6n2c5c31)C(=O)NC4` [Staurosporine], the “cells showed apoptotic nuclei” value (after 5 h of treatment) is listed as “over 53%”. For the same compound, the “Jurkat cell nuclear morphology” value (with the treatment period increased (30, 60, 120, 300 min)) was “reduced volumes and fragmented micronuclei”.
